The nature of data set [1]: Rheological measurement of storage modulus. The format is physicochemical. The conditions noted are these: no free adamantane added. As for the experimental part: (§1) PA materials were prepared and annealed using methods described in section 2.1.1. An Anton Paar MCR302 Rheometer with a 25 mm cone plate was used for all rheological studies. 150 μL of PA liquid was placed on the sample stage. For experiments using Free Adamantane, 30 μL of either 1 mM or 2 mM adamantane solution (prepared as described in section 2.1.3) was added in droplets to the top plunger. The plunger was then lowered to the measuring position and a humidity collar was added during the “sample trim” phase to prevent sample evaporation during the measurement. The sample was equilibrated for 30 minutes with a constant angular frequency of 10 rad/s and 0.1% strain. The storage and loss modulus were recorded. For thixotropy studies, the sample was applied to the stage as previously mentioned. The first and third interval consisted of 10, 6 second points with an oscillating shear strain of 0.1% and angular frequency of 10 rad/s. The storage and loss modulus were plotted against time. The second interval consisted of 10, 1 second points with a constant shear rate of 100 s^−1. The viscosity was plotted against time. For recovery experiments, G′ and G″ were measured during alternating intervals of low and high strain. The low strain interval was 200 seconds at 0.5% strain and the high strain interval was 50 seconds at 50% strain.

A short description of data set [2]: Thixotropy interval study (before/after high shear). The format is physicochemical. As for the experimental part: as §1
The nature of data set [3]: 1H-NMR titration, association constant of β-cyclodextrin with 1-adamantaneacetic acid. The conditions noted are these: 1:1 host-guest binding model; 125 mM NaCl, 3 mM KCl buffer pH 7.2-7.4, 25° C. On the procedure: The association constant for the binding between 1-adamantaneacetic acid and β-cyclodextrin was measured in 125 mM NaCl and 3 mM KCl buffer at pH 7.2-7.4. In a typical titration experiment, small amounts of a “guest solution” (100 mM 1-adamantaneacetic acid and 3.5 mM β-cyclodextrin in deuterated buffer) were added to approximately 0.8 ml of “host solution” (3.5 mM β-cyclodextrin in deuterated buffer) until at least 5 equiv of “guest” molecules were added. 1H-NMR spectra were obtained at 25° C. upon each addition of the “guest” solution and a binding isotherm was constructed by monitoring the protons on 1-adamantaneacetic acid.
The binding isotherms were fit to a standard 1:1 host-guest binding model (Eq. 1-3) where [HG] is the concentration of host-guest complex, [H]0 is the total concentration of “host” molecules, [G]0 is the total concentration of “guest” molecules, do is the proton peak position at [HG]/[H]0=0, δ is the proton peak position measured at different values of [HG]/[H]0, and δ∞ is a fitting parameter. All spectra were obtained with a X500 Bruker Avance III HD system equipped with a TXO Prodigy probe and analyzed with the MestreNova (Mestrelab Research) software.

Structures are written as SMILES. Where a SMILES comes first, the peptide text is derived from it. The star is where a group is joined. Palmitoyl = CCCCCCCCCCCCCCCC(=O)*

As for `CCCCCCCCCCCCCCCC(=O)N[C@H](C(=O)N[C@H](C(=O)N[C@@H](C)C(=O)N[C@@H](C)C(=O)N[C@@H](CCC(=O)O)C(=O)N[C@@H](CCC(=O)O)C(N)=O)C(C)C)C(C)C` [E2 PA, C16V2A2E2] (Palmitoyl-VVAAEE-NH2), the “storage modulus (G′)” value in data set [1] is 20±12 Pa. Also, in data set [2] (after high shear), the “G′ after high shear” value came out at 26.8 Pa. In data set [2] (before high shear), the “G′ before high shear” value was found to be 43.9 Pa.
Take `OC[C@H]1O[C@@H]2O[C@H]3[C@H](O)[C@@H](O)[C@@H](O[C@H]4[C@H](O)[C@@H](O)[C@@H](O[C@H]5[C@H](O)[C@@H](O)[C@@H](O[C@H]6[C@H](O)[C@@H](O)[C@@H](O[C@H]7[C@H](O)[C@@H](O)[C@@H](O[C@H]8[C@H](O)[C@@H](O)[C@@H](O[C@H]1[C@H](O)[C@H]2O)O[C@@H]8CO)O[C@@H]7CO)O[C@@H]6CO)O[C@@H]5CO)O[C@@H]4CO)O[C@@H]3CO` [β-cyclodextrin]: the “association constant (Ka)” value in data set [3] worked out at 395 M⁻¹.

For the origin of these results see US12116461B2, “Host-guest interactions for pa superstructure formation” (Northwestern University, priority 2020, dated 2024).
